In patent US20240142467A1, “Use of Biomarkers in the Treatment of Fibrotic Conditions with a PDE4B-inhibitor” (Boehringer Ingelheim International GmbH, priority 2022, published 2024):

Tested on: patients with idiopathic pulmonary fibrosis
Experiment: Phase 2 trial NCT04419506: biomarker analysis in blood plasma or serum (ELISA, Luminex; MMRM)
Type: in vivo, human
Description: Blood samples were collected from patients during the clinical phase 2 trial at baseline, at 2, 4, 8 and 12 weeks (after baseline) of the “Compound of formula A′ treatment arm” and of the “Placebo arm”, and blood plasma and/or blood serum was prepared according to methods known in the art.
Fibrosis-related biomarkers were assessed in plasma or serum using ELISA or Luminex technologies. The changes in these fibrosis-related biomarkers at weeks 2, 4, 8 and 12 after baseline were analysed using mixed models with repeated measures (MMRM). The fold changes in the tested biomarkers over baseline over time were then compared between patients of the of the “Compound of formula A′ treatment arm” and patients of the “Placebo arm”.
Biomarker values were only considered valid up to +2 days for CRP and up to +7 days after last drug intake for all other proteins.
At MLM (MLM Medical Labs GmbH, Mönchengladbach, Germany, www.mlm-labs.com) the biomarker KL-6 (Krebs von den Lungen) was measured using CLEIA Test kits (Lumipulse® G KL-6 Immunoreaction Cartridges) from Fujirebio (www.fujirebio.com) and a Lumipulse G1200 system, the biomarker sICAM-1 was measured using an ECLIA assay (V-PLEX Plus Vascular Injury Panel 2 Human Kit) from Meso Scale Discovery (MSD) on the Meso QuickPlex SQ120 device, and the biomarker MMP-7 was measured using a Quantikine® ELISA assay (Human MMP-7/PARC Quantikine® ELISA kit) from R&D Systems on a TECAN Absorbance Reader, according to manufacturer's instructions.
The biomarkers CA-125, CA19-9, COMP, CRP, E-selectin, sICAM-1, MMP-3, MMP-7, Prostasin, TIMP-1, and vWF were measured using validated microsphere-based immune-multiplexing assays using Luminex technology at MyriadRBM (Rules Based Medicine, a q2 solutions company, Austin, Texas, USA, www.rbm.q2labsolutions.com).
The biomarker data as collected from the different treatment groups of the phase II trial have been analysed with regard to three different aspects: • 1. The biomarker data has been analysed with regard to the “pharmacodynamic potential” of each respective biomarker, that means the change from baseline (CfB) of the biomarker level over time during treatment with the compound of formula A′ has been analysed. […] The biomarker data has been analysed with regard to the “prognostic potential” of each respective biomarker, that means the level of biomarker at baseline vs. clinical outcome after 12 weeks (=the absolute FVC [mL] change from baseline at week 12 and the absolute change from baseline in Dlco % predicted at week 12) in the Placebo groups has been analysed which is disease-related and may be used to assess the progression of the disease (e.g. fast vs. slow progressors). • 3. The biomarker data has been analysed with regard to their “outcome-related potential” of each respective biomarker, that means the change from baseline (CfB) in biomarker level vs. the clinical outcomes after 12 weeks (=the absolute FVC [mL] change from baseline at week 12 and the absolute change from baseline in Dlco % predicted at week 12) in the compound of formula A′ treatment groups has been analysed. Hereby, a potential early prediction of both clinical endpoint and treatment effect may be achieved.

[1] = AF-background, listed as Comp. A′
[2] = Non-AF-background, listed as Comp. A′

[O-][S@+]1CCc2nc(N3CCC(c4ncc(Cl)cn4)CC3)nc(NC3(CO)CCC3)c21 [Compound of formula A′]
CRP: change of biomarker from baseline to Week 12 in Comp. A′ arm vs. Placebo arm (AF-background): increased
E-selectin: change of biomarker from baseline to Week 12 in Comp. A′ arm vs. Placebo arm (AF-background): decreased
KL-6: change of biomarker from baseline to Week 12 in Comp. A′ arm vs. Placebo arm (AF-background): decreased
Matrilysin (MMP7, MLM): change of biomarker from baseline to Week 12 in Comp. A′ arm vs. Placebo arm (AF-background): decreased
Prostasin: change of biomarker from baseline to Week 12 in Comp. A′ arm vs. Placebo arm (AF-background): ↓
SP-D: change of biomarker from baseline to Week 12 in Comp. A′ arm vs. Placebo arm (AF-background): decreased
CA19.9 (U/mL): fold change from baseline to Week 4, adjusted mean (AF-background, blood, MMRM): 0.987
CA19.9 (U/mL): fold change from baseline to Week 12, adjusted mean (AF-background, blood, MMRM): 0.914
CA-125 (MUC-16) (U/mL): fold change from baseline to Week 4, adjusted mean (AF-background, blood, MMRM): 1.030
CA-125 (MUC-16) (U/mL): fold change from baseline to Week 12, adjusted mean (AF-background, blood, MMRM): 1.067
COMP (μg/L): fold change from baseline to Week 4, adjusted mean (AF-background, blood, MMRM): 0.991
COMP (μg/L): fold change from baseline to Week 12, adjusted mean (AF-background, blood, MMRM): 1.023
CRP (mg/L): fold change from baseline to Week 4, adjusted mean (AF-background, blood, MMRM): 1.780
CRP (mg/L): fold change from baseline to Week 12, adjusted mean (AF-background, blood, MMRM): 1.545
E-selectin (μg/L): fold change from baseline to Week 4, adjusted mean (AF-background, blood, MMRM): 0.933
E-selectin (μg/L): fold change from baseline to Week 12, adjusted mean (AF-background, blood, MMRM): 0.936
KL-6 (U/mL): fold change from baseline to Week 4, adjusted mean (AF-background, blood, MMRM): 0.960
KL-6 (U/mL): fold change from baseline to Week 12, adjusted mean (AF-background, blood, MMRM): 0.923
Matrilysin (μg/L) (MMP7, MLM): fold change from baseline to Week 4, adjusted mean (AF-background, blood, MMRM): 0.941
Matrilysin (μg/L) (MMP7, MLM): fold change from baseline to Week 12, adjusted mean (AF-background, blood, MMRM): 0.981
Prostasin (μg/L): fold change from baseline to Week 4, adjusted mean (AF-background, blood, MMRM): 0.939
Prostasin (μg/L): fold change from baseline to Week 12, adjusted mean (AF-background, blood, MMRM): 0.933
SP-D (μg/L): fold change from baseline to Week 4, adjusted mean (AF-background, blood, MMRM): 0.879
SP-D (μg/L): fold change from baseline to Week 12, adjusted mean (AF-background, blood, MMRM): 0.894
Stromelysin-1 MMP3) (μg/L): fold change from baseline to Week 4, adjusted mean (AF-background, blood, MMRM): 1.063
Stromelysin-1 MMP3) (μg/L): fold change from baseline to Week 12, adjusted mean (AF-background, blood, MMRM): 1.056
sICAM1 (RBM) (μg/L): fold change from baseline to Week 4, adjusted mean (AF-background, blood, MMRM): 1.049
sICAM1 (RBM) (μg/L): fold change from baseline to Week 12, adjusted mean (AF-background, blood, MMRM): 1.069
vWF (mg/L): fold change from baseline to Week 4, adjusted mean (AF-background, blood, MMRM): 1.035
vWF (mg/L): fold change from baseline to Week 12, adjusted mean (AF-background, blood, MMRM): 0.964
CRP: change of biomarker from baseline to Week 12 in Comp. A′ arm vs. Placebo arm [1]: ↑ (significant increase)
E-selectin: change of biomarker from baseline to Week 12 in Comp. A′ arm vs. Placebo arm [1]: ↓
KL-6: change of biomarker from baseline to Week 12 in Comp. A′ arm vs. Placebo arm [1]: ↓ (significant decrease)
Matrilysin (MMP7, MLM): change of biomarker from baseline to Week 12 in Comp. A′ arm vs. Placebo arm [1]: ↓
SP-D: change of biomarker from baseline to Week 12 in Comp. A′ arm vs. Placebo arm [1]: ↓ (significant decrease)
CA19-9: change of biomarker from baseline to Week 12 in Comp. A′ arm vs. Placebo arm (Non-AF-background): ↓
CA-125 (MUC-16): change of biomarker from baseline to Week 12 in Comp. A′ arm vs. Placebo arm (Non-AF-background): decreased
COMP: change of biomarker from baseline to Week 12 in Comp. A′ arm vs. Placebo arm (Non-AF-background): decreased
CRP: change of biomarker from baseline to Week 12 in Comp. A′ arm vs. Placebo arm (Non-AF-background): increased
E-selectin: change of biomarker from baseline to Week 12 in Comp. A′ arm vs. Placebo arm (Non-AF-background): decreased
KL-6: change of biomarker from baseline to Week 12 in Comp. A′ arm vs. Placebo arm (Non-AF-background): decreased
Matrilysin (MMP7, MLM): change of biomarker from baseline to Week 12 in Comp. A′ arm vs. Placebo arm (Non-AF-background): decreased
Prostasin: change of biomarker from baseline to Week 12 in Comp. A′ arm vs. Placebo arm (Non-AF-background): decreased
SP-D: change of biomarker from baseline to Week 12 in Comp. A′ arm vs. Placebo arm (Non-AF-background): decreased
Stromelysin-1 (MMP3): change of biomarker from baseline to Week 12 in Comp. A′ arm vs. Placebo arm (Non-AF-background): ↓
sICAM1 (RBM): change of biomarker from baseline to Week 12 in Comp. A′ arm vs. Placebo arm (Non-AF-background): basically the same
vWF: change of biomarker from baseline to Week 12 in Comp. A′ arm vs. Placebo arm (Non-AF-background): decreased
CA19-9 (U/mL): fold change from baseline to Week 4, adjusted mean (Non-AF-background, blood, MMRM): 0.901
CA19-9 (U/mL): fold change from baseline to Week 12, adjusted mean (Non-AF-background, blood, MMRM): 1.016
CA-125 (MUC-16) (U/mL): fold change from baseline to Week 4, adjusted mean (Non-AF-background, blood, MMRM): 0.956
CA-125 (MUC-16) (U/mL): fold change from baseline to Week 12, adjusted mean (Non-AF-background, blood, MMRM): 1.039
COMP (μg/L): fold change from baseline to Week 4, adjusted mean (Non-AF-background, blood, MMRM): 0.970
COMP (μg/L): fold change from baseline to Week 12, adjusted mean (Non-AF-background, blood, MMRM): 0.949
CRP (mg/L): fold change from baseline to Week 4, adjusted mean (Non-AF-background, blood, MMRM): 2.134
CRP (mg/L): fold change from baseline to Week 12, adjusted mean (Non-AF-background, blood, MMRM): 1.479
E-selectin (μg/L): fold change from baseline to Week 4, adjusted mean (Non-AF-background, blood, MMRM): 0.943
E-selectin (μg/L): fold change from baseline to Week 12, adjusted mean (Non-AF-background, blood, MMRM): 0.982
KL-6 (U/mL): fold change from baseline to Week 4, adjusted mean (Non-AF-background, blood, MMRM): 0.911
KL-6 (U/mL): fold change from baseline to Week 12, adjusted mean (Non-AF-background, blood, MMRM): 0.916
Matrilysin (μg/L) (MMP7, MLM): fold change from baseline to Week 4, adjusted mean (Non-AF-background, blood, MMRM): 0.908
Matrilysin (μg/L) (MMP7, MLM): fold change from baseline to Week 12, adjusted mean (Non-AF-background, blood, MMRM): 0.883
Prostasin (μg/L): fold change from baseline to Week 4, adjusted mean (Non-AF-background, blood, MMRM): 0.883
Prostasin (μg/L): fold change from baseline to Week 12, adjusted mean (Non-AF-background, blood, MMRM): 0.905
SP-D (μg/L): fold change from baseline to Week 4, adjusted mean (Non-AF-background, blood, MMRM): 0.833
SP-D (μg/L): fold change from baseline to Week 12, adjusted mean (Non-AF-background, blood, MMRM): 0.875
Stromelysin-1 MMP3) (μg/L): fold change from baseline to Week 4, adjusted mean (Non-AF-background, blood, MMRM): 0.963
Stromelysin-1 MMP3) (μg/L): fold change from baseline to Week 12, adjusted mean (Non-AF-background, blood, MMRM): 0.960
sICAM1 (RBM) (μg/L): fold change from baseline to Week 4, adjusted mean (Non-AF-background, blood, MMRM): 0.956
sICAM1 (RBM) (μg/L): fold change from baseline to Week 12, adjusted mean (Non-AF-background, blood, MMRM): 0.937
vWF (μg/L) (mg/L): fold change from baseline to Week 4, adjusted mean (Non-AF-background, blood, MMRM): 0.991
vWF (μg/L) (mg/L): fold change from baseline to Week 12, adjusted mean (Non-AF-background, blood, MMRM): 0.972
CA-125 (MUC-16): change of biomarker from baseline to Week 12 in Comp. A′ arm vs. Placebo arm [2]: ↓ (minor decrease)
COMP: change of biomarker from baseline to Week 12 in Comp. A′ arm vs. Placebo arm [2]: ↓
CRP: change of biomarker from baseline to Week 12 in Comp. A′ arm vs. Placebo arm [2]: ↑ (significant increase)
E-selectin: change of biomarker from baseline to Week 12 in Comp. A′ arm vs. Placebo arm [2]: ↓
KL-6: change of biomarker from baseline to Week 12 in Comp. A′ arm vs. Placebo arm [2]: ↓ (significant decrease)
Matrilysin (MMP7, MLM): change of biomarker from baseline to Week 12 in Comp. A′ arm vs. Placebo arm [2]: ↓ (significant decrease)
Prostasin: change of biomarker from baseline to Week 12 in Comp. A′ arm vs. Placebo arm [2]: ↓
SP-D: change of biomarker from baseline to Week 12 in Comp. A′ arm vs. Placebo arm [2]: ↓ (significant decrease)
vWF: change of biomarker from baseline to Week 12 in Comp. A′ arm vs. Placebo arm [2]: ↓
elevation of the CRP-levels (treatment groups regardless of background therapy): approximately 2 ×
